The subject of experiment [1] is LTB4. The experiment in a line: Reverse Passive Arthus Reaction (pleurisy), LTB4 in pleural exudate. Format: in vivo, male Lewis rats. Particulars: p.o. On the procedure: 3. Reverse Passive Arthus Reaction
A reverse passive Arthus reaction is induced in the pleural cavity of male Lewis rats (150-200 g; fasted overnight prior to use) by the intravenous administration of bovine serum albumin (BSA; 4 mg/0.2 ml) followed 30 minutes later by the injection of rabbit anti-BSA (1 mg/2.0 ml; lyophilized IgG fraction; Organon Teknika, West Chester, Pa.) into the right pleural space under halothane anesthesia. Drugs or vehicle (0.5% Tween-80) control are administered orally in a volume of 1 ml/100 g body weight at 1 hour prior to the anti-BSA. Animals are sacrificed at either the time of peak eicosanoid production (i.e. 5 minutes after anti-BSA for immunoreactive T×B2, 10 minutes for immunoreactive LTB4, 20 minutes for immunoreactive LTC4) or at the time of peak neutrophil infiltration (4 hours after anti-BSA) by CO2 inhalation. The pleural cavity is then exposed, the fluid exudate removed by gentle vacuum aspiration and the volume of exudate is recorded. For the determination of cellular infiltration, the pleural cavity is rinsed with 3 ml of 0.1% EDTA in sterile saline, and the recovered wash is pooled with the exudate. Cell number is determined on a model ZBI Coulter counter. For determination of eicosanoid production, undiluted pleural exudate is microfuged and the supernatant is extracted with ethanol (8-10 times volume). Extracts are either stored at -20° C., or are evaporated to dryness under a stream of N2 and reconstituted in radioimmunoassay (RIA) buffer.
Eicosanoids are quantitated by RIA according to the procedure specified by the RIA kit manufacturer (Advanced Magnetics, Cambridge, MA). Briefly, 100 μl of ^3 H-labeled eicosanoid and 100 μl of specific antibody are sequentially added to 100 μl of extracted pleural exudate in BGG-phosphate buffer which contains 0.01M phosphate, 0.1% bovine gamma globulin and 0.1% sodium azide at pH 7.0. Antibody-bound eicosanoid is separated from unbound eicosanoid by the addition of 750 μl of dextran (0.4%)-coated charcoal (Norit A) containing 0.1% sodium azide. The mixture is centrifuged at 2000 RPM at 5° C. for 15 minutes to pellet the charcoal and adsorbed unbound eicosanoid. Antibody-bound labeled eicosanoid is quantitated by counting in a liquid scintillation counter, and is correlated to concentration by a standard curve.

Experiment [2] addresses T1, 5-Lipoxygenase (Homo sapiens, UniProt P09917).
T1 construct: from tissue; host or cells: whole blood of male human donors (endogenous enzyme of the leukocytes)
T1 sequence (P09917 1-674): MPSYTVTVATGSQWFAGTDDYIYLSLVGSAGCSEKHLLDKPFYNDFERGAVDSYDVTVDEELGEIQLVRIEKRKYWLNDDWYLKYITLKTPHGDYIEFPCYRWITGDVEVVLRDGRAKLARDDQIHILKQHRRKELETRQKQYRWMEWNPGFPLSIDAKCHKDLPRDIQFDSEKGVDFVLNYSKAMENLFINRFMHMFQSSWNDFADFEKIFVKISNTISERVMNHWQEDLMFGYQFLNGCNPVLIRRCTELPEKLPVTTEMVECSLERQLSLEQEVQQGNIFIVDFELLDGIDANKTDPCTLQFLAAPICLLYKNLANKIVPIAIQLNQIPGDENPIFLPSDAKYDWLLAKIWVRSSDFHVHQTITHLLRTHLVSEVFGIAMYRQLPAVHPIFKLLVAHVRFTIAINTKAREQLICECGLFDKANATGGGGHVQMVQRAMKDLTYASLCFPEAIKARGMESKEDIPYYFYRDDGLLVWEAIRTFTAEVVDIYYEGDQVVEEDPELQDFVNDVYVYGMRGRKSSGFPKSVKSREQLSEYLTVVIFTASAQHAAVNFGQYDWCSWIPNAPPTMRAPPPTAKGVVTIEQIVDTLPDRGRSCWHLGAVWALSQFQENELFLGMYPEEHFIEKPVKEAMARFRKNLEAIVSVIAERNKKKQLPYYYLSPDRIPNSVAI
The experiment is described as follows: Inhibition of 5-Lipoxygenase in Human Whole Blood (LTB4, calcium ionophore A23187). The class given is cell-based. Particulars: 1 μM. On the procedure: 1. Inhibition of 5-Lipoxygenase in Human Whole Blood
Blood is obtained in 50-100 ml quantities from male donors. White blood cell counts and differentials are made. Two ml of blood are placed in a 15 ml polypropylene test tube. Test compounds are solubilized in dimethylsulfoxide and diluted in 1:10 in 10% bovine serum albumin in phosphate buffered saline, pH 7.4 resulting in a final dimethylsulfoxide concentration of 0.1% in the blood. Then, solutions of test compounds are added to the blood in a shaking water bath at 37° C. for 10 minutes prior to the addition of 30 μM calcium ionophore (A23187, Sigma). After ionophore administration, whole blood samples are mixed and incubated for 20 minutes at 37° C. in a shaking water bath. Incubation is terminated by placing samples in an ice bath and immediately adding ethylene glycol-bis-(β-aminoethyl ether)-N, N,N',N'-tetraacetic acid (10 mM). Samples are mixed and centrifuged at 1200× g for 15 minutes at 4° C. Preparation of samples for evaluation by RIA or ELISA is carried out by the following protocol. Plasma is removed from sample tubes, placed in 15 ml polypropylene test tubes containing 8 ml methanol, and then vortexed to precipitate protein. Samples are stored at -70° C. overnight. The next day, samples are centrifuged at 200× g for 15 minutes at 4° C. to pellet the precipitate. Samples are dried in a Savant SpeedVac Concentrator, Model SVC 200H, reconstituted to original volume with ice cold RIA or ELISA buffer, and stored at -70° C. until assayed. The assay for eicosanoids (LTB4, T×B2, and PGE2) is performed as described by the manufacturer of the ^3 H!-RIA kit or ELISA kit (LTB4 -Amersham, T×B2 and PGE2 -Caymen Chemical).
The total eicosanoid level in 2 ml of blood is calculated and reported as ng/10^6 neutrophils. Significance is determined by a one-way analysis of variance with least significant difference (LSD) comparisons to control (p≤0.05) and IC50 's (μM) are determined by regression analysis (Finney, 1978). Drug effects are expressed as percent change from control values.

Data on four compounds can be found in patent US5504097A, “N-hydroxyureas as 5-lipoxygenase inhibitors and inhibitors of oxidative modification of low density lipoprotein” (American Home Products Corporation, priority 1995, dated 1996).

Structures are written as SMILES.

Usually inhibition stands for the relative decrease from the control value, in per cent.

As for `Cc1oc(-c2ccccc2)nc1COc1ccc(CN(O)C(N)=O)cc1` [Example 1, 1-Hydroxy-1-4-(5-methyl-2-phenyl-oxazol-4-ylmethoxy)-benzyl!-urea], the “% Inhibition of LTB4 Synthesis” value is given as 36% in experiment [1] (10 mg/kg) and 69% in experiment [1] (25 mg/kg). The inhibition at 1 µM in experiment [2] amounted to 50%.
As to `Cc1oc(-c2ccc(C(F)(F)F)cc2)nc1COc1ccc(CN(O)C(N)=O)cc1` [Example 6, 1-Hydroxy-1-4-5-methyl-2-(4-trifluoromethyl-phenyl)-oxazol-4-ylmethoxy!-benzyl!-urea], the “% Inhibition of LTB4 Synthesis” value in experiment [1] (10 mg/kg) turned out to be 45%. The inhibition at 1 µM in experiment [2] was determined as 34%.
As for `NC(=O)N(O)Cc1ccc(OCc2coc(-c3ccccc3)n2)cc1` [Example 9, 1-Hydroxy-1-4-(2-phenyl-oxazol-4-ylmethoxy)-benzyl!-urea], in experiment [1] (10 mg/kg), the “% Inhibition of LTB4 Synthesis” value turned out to be 60%. Moreover, in experiment [2], the inhibition at 1 µM was determined as 58%.
Turning to `NC(=O)N(O)Cc1ccc(OCc2csc(-c3ccccc3)n2)cc1` [Example 10, 1-Hydroxy-1-4-(2-phenyl-thiazol-4-ylmethoxy)-benzyl!-urea], in experiment [1] (10 mg/kg), the “% Inhibition of LTB4 Synthesis” value was found to be 99%. Besides, in experiment [2], the inhibition at 1 µM is 44%.
